{"source": "patent US9616051B2", "about": "“Drug targets to overcome de novo drug-resistance in multiple myeloma” (H. Lee Moffitt Cancer Center and Research Institute, Inc., priority 2008, dated 2017)", "key": {"[1]": {"tested_on": "RPMI-8226 (8226)", "test": "CT-Glo cytotoxicity assay, 8226 cells", "type": "cell-based, human", "settings": "Homo sapiens, RPMI-8226", "description": "(§1) Compounds identified in Example 1 as the top scoring potential inhibitors for each of the two NES (20 each) were obtained from NCI and structures of these molecules confirmed using NMR and mass spectroscopy analysis, seen in FIGS. 4(A)-(C) and 5(A)-(D). The potential inhibitors were followed up using in vitro model cell cultures. MM cell lines NCI-H929 (H929) and RPMI-8226 (8226) were obtained from and tested for authenticity by the American Type Culture Collection (Manassas, Va.). All cell lines were grown as described previously (Turner, et al., Human topoisomerase IIalpha nuclear export is mediated by two CRM-1-dependent nuclear export signals. J Cell Sci 2004; 117: 3061-71).\n(§2) The molecules with the highest docking scores were assayed for IC50 values. Cultures were tested for cytotoxicity using the CellTiter-Glo assay (CT-Glo cytotoxicity assay; Promega, Madison, Wis.), a luminescence-based homogeneous method for determining the number of viable cells in culture based on quantitation of the ATP present, which signals the presence of metabolically active cells (Corsino, et al., A novel class of cyclin-dependent kinase inhibitors identified by molecular docking act through a unique mechanism. J Biol Chem 2009; 284: 29945-55; Homsi, et al., Src activation in melanoma and Src inhibitors as therapeutic agents in melanoma. Melanoma Res 2009; 19: 167-75). All cells were assayed at log-phase growth conditions. Luminescence was measured with a Synergy 4 microplate reader (Bio-Tek Instruments, Inc., Winooski, Vt.). IC50 values were determined using a sigmoidal equilibrium model regression using XLfit version 5.2 (ID Business Solutions Ltd., Surrey, UK) (Corsino, et al., A novel class of cyclin-dependent kinase inhibitors identified by molecular docking act through a unique mechanism. J Biol Chem 2009; 284: 29945-55)."}, "[2]": {"tested_on": "NCI-H929 (H929)", "test": "CT-Glo cytotoxicity assay, H929 cells", "type": "cell-based, human", "settings": "Homo sapiens, NCI-H929, 72-h CT-Glo, average ± SD", "description": "as §1, §2"}, "[3]": {"tested_on": "HL-60", "test": "CT-Glo cytotoxicity assay, HL-60 cells", "type": "cell-based", "settings": "Homo sapiens, 72-h CT-Glo", "experimental": "as §2"}, "[4]": {"tested_on": "MCF-7", "test": "CT-Glo cytotoxicity assay, MCF-7 cells", "type": "cell-based", "settings": "Homo sapiens, MCF7, 72-h CT-Glo, average ± SD", "experimental": "as §2"}, "[5]": {"tested_on": "SK-UT", "test": "CT-Glo cytotoxicity assay, SK-UT cells", "type": "cell-based", "settings": "72-h CT-Glo, average ± SD", "experimental": "as §2"}, "[6]": {"tested_on": "FLOW", "test": "CT-Glo cytotoxicity assay, FLOW cells", "type": "cell-based", "settings": "72-h CT-Glo, average ± SD", "experimental": "as §2"}, "[7]": {"tested_on": "WI-38", "test": "CT-Glo cytotoxicity assay, WI-38 cells", "type": "cell-based", "settings": "Homo sapiens, 72-h CT-Glo", "experimental": "as §2"}, "[8]": {"tested_on": "PBMC", "test": "CT-Glo cytotoxicity assay, PBMC", "type": "cell-based", "settings": "72-h CT-Glo, average ± SD", "experimental": "as §2"}, "[9]": {"molecular_target": "T1, topo IIα (Homo sapiens, UniProt P11388)", "T1 construct": "effect on the intracellular location of topo IIα in treated MM cells; endogenous in cells; host or cells: human multiple myeloma cells NCI-H929", "T1 sequence (P11388 whole entry)": "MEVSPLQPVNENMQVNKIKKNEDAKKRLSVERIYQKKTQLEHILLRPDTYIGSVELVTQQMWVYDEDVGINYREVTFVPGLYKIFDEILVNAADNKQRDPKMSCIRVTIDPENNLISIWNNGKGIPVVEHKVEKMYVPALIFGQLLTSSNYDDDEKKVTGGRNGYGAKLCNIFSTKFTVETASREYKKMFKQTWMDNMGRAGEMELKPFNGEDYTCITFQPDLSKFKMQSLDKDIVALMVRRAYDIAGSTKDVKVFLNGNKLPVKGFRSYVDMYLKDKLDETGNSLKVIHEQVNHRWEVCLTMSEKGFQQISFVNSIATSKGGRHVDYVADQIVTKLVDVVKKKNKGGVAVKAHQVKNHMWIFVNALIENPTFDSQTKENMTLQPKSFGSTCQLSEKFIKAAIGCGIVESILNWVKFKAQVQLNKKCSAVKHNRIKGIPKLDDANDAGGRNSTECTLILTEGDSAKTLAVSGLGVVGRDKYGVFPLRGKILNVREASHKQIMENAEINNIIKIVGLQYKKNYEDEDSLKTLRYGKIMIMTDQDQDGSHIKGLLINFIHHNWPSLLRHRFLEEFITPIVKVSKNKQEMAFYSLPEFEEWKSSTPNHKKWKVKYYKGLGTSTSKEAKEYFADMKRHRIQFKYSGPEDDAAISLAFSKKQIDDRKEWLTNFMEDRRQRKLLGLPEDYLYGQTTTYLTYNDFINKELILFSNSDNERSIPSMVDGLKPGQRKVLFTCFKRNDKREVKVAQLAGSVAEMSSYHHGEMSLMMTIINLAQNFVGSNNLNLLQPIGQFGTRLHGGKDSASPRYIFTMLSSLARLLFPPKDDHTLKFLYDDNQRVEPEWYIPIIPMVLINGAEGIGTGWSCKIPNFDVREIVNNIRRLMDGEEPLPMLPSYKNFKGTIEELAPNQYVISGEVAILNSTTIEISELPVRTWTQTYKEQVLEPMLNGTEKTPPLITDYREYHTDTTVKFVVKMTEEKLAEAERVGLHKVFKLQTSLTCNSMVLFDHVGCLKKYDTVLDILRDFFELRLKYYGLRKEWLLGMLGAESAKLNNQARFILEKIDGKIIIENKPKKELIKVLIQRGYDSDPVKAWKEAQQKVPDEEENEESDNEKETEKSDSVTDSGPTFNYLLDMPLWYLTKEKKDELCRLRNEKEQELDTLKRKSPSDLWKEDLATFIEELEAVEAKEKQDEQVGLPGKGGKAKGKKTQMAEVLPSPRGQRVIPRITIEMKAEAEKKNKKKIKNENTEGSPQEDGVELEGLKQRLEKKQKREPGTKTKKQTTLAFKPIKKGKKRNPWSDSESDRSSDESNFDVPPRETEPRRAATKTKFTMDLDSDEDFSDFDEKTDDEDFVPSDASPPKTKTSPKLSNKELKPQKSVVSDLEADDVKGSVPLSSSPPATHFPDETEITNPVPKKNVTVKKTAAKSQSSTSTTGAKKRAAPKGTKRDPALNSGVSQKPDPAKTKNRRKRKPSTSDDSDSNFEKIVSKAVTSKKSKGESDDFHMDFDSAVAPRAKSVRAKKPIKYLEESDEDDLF", "test": "Immunofluorescence microscopy of intracellular location of topo IIα", "type": "cell-based", "settings": "25 μM NES inhibitor", "experimental": "Slides were viewed with a fully automated, upright Zeiss Axio-ImagerZ.1 microscope (Carl Zeiss A G, Oberkochen, Germany). Briefly, the DAPI image was used as a mask to segment the nuclear region from the Alexa 594 image. The remaining portion of the Alexa 594 image represents the cytosol, and individual nucleus and cytosol images were analyzed.\nH929 cells were mock treated with 0.1% DMSO in media or with 25 μM of NES inhibitor. The high density control cells, seen in FIG. 9(A) show high levels of topo II staining outside the nucleus, evidencing export of topo II from the nucleus."}, "[10]": {"molecular_target": "T1, topo IIα", "test": "Nuclear-cytoplasmic fractionation and Western blot for topo IIα", "type": "cell-based", "settings": "high-density RPMI-H929 cells, 25 μM, FIG. 13 legend", "experimental": "FIGS. 13(A) and (B) are blots from nuclear (nuc)-cytoplasmic (cyto) fractionation of high-density MM cells (n=2). […] Human myeloma RPMI-H929 cells were treated for 24 hours. Cells were then chemically separated into nuclear and cytoplasmic fractions.\nHuman myeloma cells were placed at plateau concentrations (4×10^6 cells/ml), and NES inhibitors were added at 25 μM for 20 hours. Cells were collected, washed in PBS, and fractionated by a method adapted from Li et al. (Li Y, Bor Y C, Misawa Y, Xue Y, Rekosh D, Hammarskjold M L. An intron with a constitutive transport element is retained in a Tap messenger RNA. Nature 2006; 443: 234-7). Separated fractions containing nuclei or precipitated cytosol were dissolved in 2% SDS buffer and assayed by SDS-PAGE Western blot analysis. Blots were probed with an anti-topo IIα Kis1 antibody (Millipore Corp.). […] Cells grown at log-phase concentrations were also fractionated. After MM cells were treated with NCI-9138 at 25 μM for 20 hours, CRM1-topo IIα complexes were isolated from cells by immunoprecipitation using a combination of both protein A and protein G magnetic beads according to the manufacturer's protocol (Miltenyi Biotec, Cologne, Germany). Co-immunoprecipitation was performed with 2 μg of anti-CRM1 antibody (Santa Cruz Biotechnology, Inc., Santa Cruz, Calif.). Immunoprecipitation samples were separated by SDS-PAGE, transferred to nitrocellulose membranes, and probed with anti-topo IIα Kis1 antibody (Millipore, Corp., Billerica, Mass.) and anti-mouse horseradish peroxidase secondary antibody."}, "[11]": {"tested_on": "p53", "test": "p53 nuclear export in low-density myeloma cells (nuclear fraction Western blot)", "type": "cell-based, human", "settings": "H929 at low density (log growth), 25 μM, 20 hours", "experimental": "FIG. 14 is a blot of lead compounds tested to determine if nuclear export inhibition was specific to topo IIα protein. p53 was cycled from the nucleus into the cytoplasm in MM cells cultured at log growth conditions. Cells grown at log-phase concentrations were treated with the lead NES inhibitors (25 μM) or a leptomycin control for 20 hours and chemically fractionated. Nuclei were assayed by SDS-PAGE Western blot analysis for p53 protein (anti-p53 (DO-1), Santa Cruz Biotech, Inc). […] Lamin A/C (anti-lamin A/C, BD Pharmingen) is shown as a loading control.\nCells grown at low concentrations were treated with the lead NES inhibitors (25 μM) or a leptomycin B (5 nM) control for 20 hours and chemically fractionated. Nuclei were assayed by SDS-PAGE Western blot analysis for p53 protein."}, "[12]": {"tested_on": "cells modeling AML, breast cancer and fibroblastoma", "test": "Combination of NCI-9138 with other drugs (FIG. 8)", "type": "cell-based", "settings": "25 μM with doxorubicin 2 μM, bortezomib 10 nM, dexamethasone, lenalidomide, melphalan, topotecan 10 μM"}, "[13]": {"tested_on": "high-density MM cells (H929)", "test": "Cleaved caspase 3 apoptosis assay, sensitization to doxorubicin"}}, "note": "Entries after “also recorded” stand apart in the source; their conditions may differ. Like-named read-outs stand apart in the source and are kept apart here."}
{"molecule": "O=C1c2ccccc2C(=O)C1C(=O)C(c1ccccc1)c1ccccc1", "note": "[NCI-9138, 2-(diphenylacetyl)-1H-indene-1,3(2H)-dione]", "values": [{"measurement": "IC50", "setting": "[1]; 8226 cells, 72-h CT-Glo, log-phase (low-density), average ± SD, read-out: IC50", "value": "12.7 ± 4.5", "unit": "µM"}, {"measurement": "IC50", "setting": "[1]; high-density cells, single agent (data not shown), read-out: IC50, viability of high-density cells", "value": 9.4, "unit": "µM"}, {"measurement": "IC50", "setting": "[2]", "value": 22.2, "unit": "µM"}, {"measurement": "IC50", "setting": "[3]", "value": 28.3, "unit": "µM"}, {"measurement": "IC50", "setting": "[4]", "value": 27.2, "unit": "µM"}, {"measurement": "IC50", "setting": "[5]", "value": 29.2, "unit": "µM"}, {"measurement": "IC50", "setting": "[6]", "value": 31.7, "unit": "µM"}, {"measurement": "IC50", "setting": "[7]", "value": 30.1, "unit": "µM"}, {"measurement": "IC50", "setting": "[8]", "value": 32.5, "unit": "µM"}, {"measurement": "Nuclear export of topo IIα by immunofluorescence", "setting": "[9]; 20 hours, high-density (plateau) MM cells", "value": "overlapping staining of topo II with DAPI"}, {"measurement": "Fold-increase nuclear topo IIα", "setting": "[9]; H929 cells, nucleus v cytoplasm fluorescence vs untreated high-density controls", "value": 2.61, "unit": "fold"}, {"measurement": "Export of topo IIα, nuclear-cytoplasmic fractionation", "setting": "[10]", "value": "strongly blocked export of topo IIα"}, {"measurement": "Nuclear export of p53", "setting": "[11]", "value": "did not prevent export of p53"}, {"measurement": "Synergism of NCI-9138 in drug combinations", "setting": "[12]", "value": "Synergism was seen with doxorubicin; also recorded: synergized exclusively with the topo II inhibitor doxorubicin"}, {"measurement": "Sensitization of high-density MM cells to doxorubicin / synergism", "setting": "[13]; 25 μM NES inhibitor, doxorubicin 2 μM", "value": "synergized with the topo II inhibitor doxorubicin"}, {"measurement": "Fold-Increased sensitization to dox", "setting": "[13]; dox/drug (dox 2 μM) divided by dox alone", "value": "4.13 ± 1.83", "unit": "fold"}]}
